What was measured:
TrXyn2 = biological target: T1, TrXyn2 (Trichoderma reesei, UniProt P36217); experiment: birch wood xylan hydrolysis yield, reducing sugars by PAHBAH; assay type: biochemical; conditions: tested at 10, 100 and 1000 µg/ml; 1% xylan, 50 mM Na-citrate pH 5, 40 or 50 °C
T1 construct: gene xyn2; natural single-domain GH11 enzyme, homologously produced and purified from T. reesei culture supernatant

TrXyn1 = biological target: T2, TrXyn1 (Trichoderma reesei, UniProt P36218); experiment: as above; assay type: biochemical; conditions: tested at 10, 100 and 1000 µg/ml; 1% xylan, 50 mM Na-citrate pH 5, 40 or 50 °C; concentration of the printed value not given
T2 construct: gene xyn1; natural single-domain GH11 enzyme, homologously produced and purified from T. reesei culture supernatant
T2 sequence (P36218 52-229): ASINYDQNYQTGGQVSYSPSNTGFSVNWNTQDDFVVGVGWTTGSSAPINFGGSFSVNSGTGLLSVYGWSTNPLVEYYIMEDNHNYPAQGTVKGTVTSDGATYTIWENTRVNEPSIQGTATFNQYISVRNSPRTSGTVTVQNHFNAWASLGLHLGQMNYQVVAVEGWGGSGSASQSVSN

T1 sequence (P36217 34-223): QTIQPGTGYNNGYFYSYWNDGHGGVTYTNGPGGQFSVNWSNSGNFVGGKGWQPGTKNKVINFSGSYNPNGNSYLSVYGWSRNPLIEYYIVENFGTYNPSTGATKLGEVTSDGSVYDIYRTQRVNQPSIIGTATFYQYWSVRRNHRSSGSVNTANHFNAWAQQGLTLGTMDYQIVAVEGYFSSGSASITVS

% reduction in the hydrolysis yield (TrXyn1): 50%
SMILES: COc1cc(C=O)cc(OC)c1O [syringaldehyde]
reduction in hydrolysis yield (TrXyn2): only syringaldehyde showed a clear inhibitory effect on the hydrolysis for all the tested xylanases
